Assay results taken from the NIST ThermoML archive (doi:10.1021/je020135f).
Values joined by “and” are separate entries in the source; they are usually repeats but may differ in a detail not shown here. Equal values may be shown once. Numbers after ± are expanded uncertainties.

Columns and labels:
[1] = 298.15 K; 101.33 kPa; Liquid; Vibrating tube method
[2] = excess molar enthalpy (molar enthalpy of mixing); xn = mol fraction of the nth substance listed

CN(C)C=O [dimethylformamide]
Conditions | mass density
[1] | 943.81 ± 0.13 kg/m3 and 943.88 ± 0.1 kg/m3

CO [methanol]
Conditions | mass density [kg/m3]
[1] | 786.55 ± 0.43

CC1CCCCC1 [methylcyclohexane]
Conditions | mass density
[1] | 764.96 ± 0.42 kg/m3 and 764.97 ± 0.18 kg/m3

CC1CCCCC1 [methylcyclohexane] + CN(C)C=O
excess molar enthalpy [kcal/mol], [2], 101.33 kPa, Liquid
Conditions | 298.15 K | 313.15 K
x1 = 0.031 | 0.0593 ± 0.00182 | 0.058 ± 0.00184
x1 = 0.0633 | 0.104 ± 0.00287 | –
x1 = 0.0634 | – | 0.114 ± 0.00311
x1 = 0.0969 | 0.162 ± 0.0043 | –
x1 = 0.097 | – | 0.166 ± 0.0043
x1 = 0.132 | 0.209 ± 0.00526 | –
x1 = 0.1321 | – | 0.215 ± 0.0055
x1 = 0.1687 | – | 0.26 ± 0.00669
x1 = 0.2069 | – | 0.298 ± 0.00741
x1 = 0.9204 | – | 0.182 ± 0.00478
x1 = 0.924 | 0.17 ± 0.0043 | –
x1 = 0.9274 | 0.163 ± 0.0043 | –
x1 = 0.9305 | 0.159 ± 0.00406 | –
x1 = 0.9383 | 0.147 ± 0.00382 | 0.154 ± 0.00406
x1 = 0.9552 | – | 0.118 ± 0.00335

[2]
Conditions | excess molar enthalpy
298.15 K, Liquid mixture 1, x1 = 0.1685 | 0.228 ± 0.00574 kcal/mol
298.15 K, Liquid mixture 1, x1 = 0.2068 | 0.234 ± 0.00598 kcal/mol
298.15 K, Liquid mixture 1, x1 = 0.2467 | 0.233 ± 0.00598 kcal/mol
298.15 K, Liquid mixture 1, x1 = 0.2893 | 0.233 ± 0.00598 kcal/mol
298.15 K, Liquid mixture 1, x1 = 0.3322 | 0.231 ± 0.00598 kcal/mol
298.15 K, Liquid mixture 1, x1 = 0.3781 | 0.227 ± 0.00574 kcal/mol
298.15 K, Liquid mixture 1, x1 = 0.3782 | 0.226 ± 0.00574 kcal/mol
298.15 K, Liquid mixture 1, x1 = 0.4264 | 0.224 ± 0.00574 kcal/mol
298.15 K, Liquid mixture 1, x1 = 0.4771 | 0.221 ± 0.00574 kcal/mol
298.15 K, Liquid mixture 1, x1 = 0.5304 | 0.218 ± 0.0055 kcal/mol
298.15 K, Liquid mixture 1, x1 = 0.5867 | 0.215 ± 0.0055 kcal/mol
298.15 K, Liquid mixture 1, x1 = 0.646 | 0.212 ± 0.00526 kcal/mol
298.15 K, Liquid mixture 1, x1 = 0.7087 | 0.208 ± 0.00526 kcal/mol
298.15 K, Liquid mixture 1, x1 = 0.7751 | 0.204 ± 0.00526 kcal/mol
298.15 K, Liquid mixture 1, x1 = 0.8455 | 0.199 ± 0.00502 kcal/mol
298.15 K, Liquid mixture 1, x1 = 0.9204 | 0.179 ± 0.00454 kcal/mol
313.15 K, Liquid mixture 1, x1 = 0.2469 | 0.315 ± 0.00789 kcal/mol
313.15 K, Liquid mixture 1, x1 = 0.2887 | 0.319 kcal/mol and 0.317 kcal/mol
313.15 K, Liquid mixture 1, x1 = 0.3325 | 0.317 ± 0.00789 kcal/mol
313.15 K, Liquid mixture 1, x1 = 0.3784 | 0.316 ± 0.00789 kcal/mol
313.15 K, Liquid mixture 1, x1 = 0.4267 | 0.314 ± 0.00789 kcal/mol
313.15 K, Liquid mixture 1, x1 = 0.4773 | 0.312 ± 0.00789 kcal/mol
313.15 K, Liquid mixture 1, x1 = 0.5307 | 0.308 ± 0.00765 kcal/mol
313.15 K, Liquid mixture 1, x1 = 0.5869 | 0.306 ± 0.00765 kcal/mol
313.15 K, Liquid mixture 1, x1 = 0.6462 | 0.304 ± 0.00765 kcal/mol
313.15 K, Liquid mixture 1, x1 = 0.7089 | 0.301 ± 0.00765 kcal/mol
313.15 K, Liquid mixture 1, x1 = 0.7753 | 0.297 ± 0.00741 kcal/mol
313.15 K, Liquid mixture 1, x1 = 0.8457 | 0.276 ± 0.00693 kcal/mol

CC1CCCCC1 [methylcyclohexane] + CO
excess molar enthalpy [kcal/mol], [2], 101.33 kPa, Liquid
Conditions | 298.15 K | 313.15 K
x1 = 0.0166 | 0.0185 ± 0.00086 | 0.02 ± 0.000908
x1 = 0.0343 | – | 0.0381 ± 0.00127
x1 = 0.0345 | 0.0357 ± 0.0012 | –
x1 = 0.0534 | – | 0.0559 ± 0.00165
x1 = 0.0537 | 0.052 ± 0.00155 | –
x1 = 0.0741 | – | 0.0718 ± 0.00201
x1 = 0.0743 | 0.066 ± 0.00186 | –
x1 = 0.0964 | – | 0.0868 ± 0.00237
x1 = 0.0967 | 0.0793 ± 0.00217 | –
x1 = 0.1206 | – | 0.101 ± 0.00263
x1 = 0.121 | 0.0911 ± 0.00239 | –
x1 = 0.147 | – | 0.114 ± 0.00311
x1 = 0.1758 | – | 0.125 ± 0.00335
x1 = 0.2075 | – | 0.134 ± 0.00359
x1 = 0.2411 | – | 0.139 ± 0.00359
x1 = 0.2424 | – | 0.141 ± 0.00359
x1 = 0.7423 | – | 0.16 ± 0.00406
x1 = 0.8057 | – | 0.152 ± 0.00406
x1 = 0.8588 | – | 0.138 ± 0.00359
x1 = 0.859 | 0.101 ± 0.00263 | –
x1 = 0.9055 | – | 0.123 ± 0.00311
x1 = 0.9056 | 0.0887 ± 0.00239 | –
x1 = 0.941 | – | 0.108 ± 0.00287

[2]
Conditions | excess molar enthalpy [kcal/mol]
298.15 K, Liquid mixture 1, x1 = 0.1475 | 0.0996 ± 0.00263
298.15 K, Liquid mixture 1, x1 = 0.1764 | 0.103 ± 0.00263
298.15 K, Liquid mixture 1, x1 = 0.2082 | 0.104 ± 0.00263
298.15 K, Liquid mixture 1, x1 = 0.2411 | 0.105 ± 0.00287
298.15 K, Liquid mixture 1, x1 = 0.2432 | 0.105 ± 0.00287
298.15 K, Liquid mixture 1, x1 = 0.2819 | 0.105 ± 0.00287
298.15 K, Liquid mixture 1, x1 = 0.3251 | 0.106 ± 0.00287
298.15 K, Liquid mixture 1, x1 = 0.3736 | 0.106 ± 0.00287
298.15 K, Liquid mixture 1, x1 = 0.4283 | 0.107 ± 0.00287
298.15 K, Liquid mixture 1, x1 = 0.4907 | 0.108 ± 0.00287
298.15 K, Liquid mixture 1, x1 = 0.5623 | 0.108 ± 0.00287
298.15 K, Liquid mixture 1, x1 = 0.6453 | 0.109 ± 0.00287
298.15 K, Liquid mixture 1, x1 = 0.7429 | 0.111 ± 0.00287
298.15 K, Liquid mixture 1, x1 = 0.8061 | 0.109 ± 0.00287
313.15 K, Liquid mixture 1, x1 = 0.2812 | 0.145 ± 0.00382
313.15 K, Liquid mixture 1, x1 = 0.3244 | 0.147 ± 0.00382
313.15 K, Liquid mixture 1, x1 = 0.3728 | 0.15 ± 0.00382
313.15 K, Liquid mixture 1, x1 = 0.4275 | 0.154 ± 0.00406
313.15 K, Liquid mixture 1, x1 = 0.4898 | 0.157 ± 0.00406
313.15 K, Liquid mixture 1, x1 = 0.5615 | 0.16 ± 0.00406
313.15 K, Liquid mixture 1, x1 = 0.6446 | 0.164 ± 0.0043
